The results in this text go back to ChEMBL document CHEMBL1131683, “Preparation of pyrrolidine and isoxazolidine benzamidines as potent inhibitors of coagulation factor Xa” (Bioorg Med Chem Lett, 1999).

A value given as a limit tells only on which side of the number the result lay.

For one data set, the species on record is Oryctolagus cuniculus. As to the kind of experiment: Compound was tested for its effect in rabbit arterio-venous (A-V) shunt thrombosis model and the inhibitory dose was reported. It counts as functional.
In a further data set the target is Serine protease 1 (Homo sapiens, UniProt P07477). As to the kind of experiment: Binding affinity against trypsin in an enzyme inhibition assay.
Sequence of Serine protease 1 (P07477 whole entry): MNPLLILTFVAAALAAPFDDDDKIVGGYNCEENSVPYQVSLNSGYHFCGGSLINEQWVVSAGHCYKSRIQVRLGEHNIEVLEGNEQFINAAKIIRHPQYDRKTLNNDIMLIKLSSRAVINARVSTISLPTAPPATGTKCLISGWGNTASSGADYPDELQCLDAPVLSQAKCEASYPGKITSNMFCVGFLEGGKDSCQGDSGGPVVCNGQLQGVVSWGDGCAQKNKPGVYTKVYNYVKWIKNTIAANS
Another data set concerns the target Coagulation factor X (Homo sapiens, UniProt P00742). As to the kind of experiment: Binding affinity against Coagulation factor X in an enzyme inhibition assay.
Data set [1] in a line: Clearance rate in rabbits. It counts as ADME, organism-based, Oryctolagus cuniculus. The conditions noted are these: rabbit, in vivo.
The nature of data set [2]: Half life value in rabbits. It counts as ADME, Oryctolagus cuniculus. The conditions noted are these: rabbit, in vivo.

Sequence of Coagulation factor X (P00742 41-179 limits assumed): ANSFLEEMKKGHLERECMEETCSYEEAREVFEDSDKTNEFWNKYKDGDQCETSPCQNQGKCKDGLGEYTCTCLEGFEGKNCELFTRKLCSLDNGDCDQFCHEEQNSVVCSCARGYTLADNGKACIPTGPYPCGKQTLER
Sequence of Coagulation factor X (P00742 235-488 limits assumed): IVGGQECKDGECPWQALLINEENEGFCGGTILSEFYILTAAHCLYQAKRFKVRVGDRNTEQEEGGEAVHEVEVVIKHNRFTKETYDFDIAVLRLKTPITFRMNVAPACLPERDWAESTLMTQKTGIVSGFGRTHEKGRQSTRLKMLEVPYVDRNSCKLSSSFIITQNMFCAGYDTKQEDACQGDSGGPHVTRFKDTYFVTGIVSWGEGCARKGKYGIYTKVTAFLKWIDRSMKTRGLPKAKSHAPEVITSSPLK

In general, Ki refers to the equilibrium dissociation constant of an inhibitor or competing ligand from its target. A high value points to weaker binding. As to `COC(=O)[C@@H]1CN(Cc2ccc(-c3ccccc3S(N)(=O)=O)cc2)C[C@H]1c1cccc(C(=N)N)c1.O=C(O)C(F)(F)F.O=C(O)C(F)(F)F` (stereo in doubt; 10), the ID50 in the data set filed under Oryctolagus cuniculus is >1.4 µM/h/kg. For the same molecule, the Ki turned out to be 63 nM at Serine protease 1 and 4.8 nM on Coagulation factor X.

In the case of `CCCCOC(=O)[C@@H]1CN(Cc2ccc(-c3ccccc3S(N)(=O)=O)cc2)C[C@H]1c1cccc(C(=N)N)c1`, the values for the Ki at Serine protease 1 and at Coagulation factor X were 110 nM and 12 nM, respectively.

Take `COC(=O)CN(CCCc1ccc(-c2ccccc2S(N)(=O)=O)cc1)c1cccc(C(=N)N)c1`: on Coagulation factor X, the Ki worked out at 1.3 nM.

In the case of `N=C(N)c1cccc([C@@H]2CN(Cc3ccc(-c4ccccc4S(N)(=O)=O)cc3)C[C@H]2C(=O)O)c1`, the inhibitory constant (Ki) on Coagulation factor X was determined as 600 nM.

As for `COC(=O)[C@H]1CN(Cc2ccc(-c3ccccc3S(N)(=O)=O)cc2)C[C@H]1c1cccc(C(=N)N)c1`, the values for the inhibition constant (Ki) on Serine protease 1 and on Coagulation factor X were > 1600 nM and 170 nM, respectively.

For orientation: clearance means the volume of plasma or blood freed of the substance per unit of time. High values mean efficient removal, low ones inefficient removal. As a reminder, the half-life is the time needed for the level to fall by half in the phase considered. High values mean slow decline, low ones rapid decline. In the case of `CC(C)OC(=O)[C@@H]1CN(Cc2ccc(-c3ccccc3S(N)(=O)=O)cc2)C[C@H]1c1cccc(C(=N)N)c1.O=C(O)C(F)(F)F.O=C(O)C(F)(F)F`, the clearance in data set [1] is > 33.3 mL/min/kg. The Ki on Serine protease 1 is 98 nM; on Coagulation factor X, 5.8 nM. Further, the half-life in data set [2] was < 1 h.

Turning to `CN(C)C(=O)[C@@H]1CN(Cc2ccc(-c3ccccc3S(N)(=O)=O)cc2)C[C@H]1c1cccc(C(=N)N)c1`, the inhibitory constant (Ki) at Coagulation factor X was 400 nM.

As for `COC(=O)[C@H]1CN(Cc2ccc(-c3ccccc3S(N)(=O)=O)cc2)C[C@@H]1c1cccc(C(=N)N)c1`, the figures for the inhibition constant Ki at Serine protease 1 and at Coagulation factor X were 200 nM and 13 nM, respectively.

As for `CCOC(=O)[C@]1(C)CN(Cc2ccc(-c3ccccc3S(N)(=O)=O)cc2)C[C@H]1c1cccc(C(=N)N)c1`, the Ki on Serine protease 1 turned out to be 750 nM; at Coagulation factor X, 26 nM.

In the case of `CC(=O)[C@@H]1CN(Cc2ccc(-c3ccccc3S(N)(=O)=O)cc2)C[C@H]1c1cccc(C(=N)N)c1`, the Ki on Serine protease 1 was determined as 200 nM; at Coagulation factor X, 36 nM.

Take `COC(=O)[C@@H]1CN(Cc2ccc(-c3ccccc3S(N)(=O)=O)cc2)O[C@H]1c1cccc(C(=N)N)c1`: the Ki was determined as 69 nM on Serine protease 1 and 3.1 nM on Coagulation factor X.

For `N=C(N)c1cccc([C@@H]2CN(Cc3ccc(-c4ccccc4S(N)(=O)=O)cc3)C[C@@H]2C(=O)O)c1`, the inhibition constant (Ki) on Coagulation factor X was determined as 460 nM.

Turning to `CC(C)OC(=O)[C@@H]1CN(Cc2ccc(-c3ccccc3S(N)(=O)=O)cc2)O[C@H]1c1cccc(C(=N)N)c1.O=C(O)C(F)(F)F.O=C(O)C(F)(F)F`, in data set [1], the clearance is > 33.3 mL/min/kg. In addition, the Ki is 93 nM at Serine protease 1 and 1.8 nM at Coagulation factor X. For the same molecule, the half-life in data set [2] was < 1 h.

Consider `N=C(N)c1cccc([C@@H]2CN(Cc3ccc(-c4ccccc4S(N)(=O)=O)cc3)C[C@H]2C(N)=O)c1`, for which the Ki came to 500 nM on Serine protease 1 and 150 nM on Coagulation factor X.

Turning to `COC(=O)[C@@H]1CN(Cc2ccc(-c3ccccc3S(N)(=O)=O)cc2)C[C@H]1c1cccc(C(=N)N)c1` (stereo in doubt; 15), the Ki at Serine protease 1 came to 52 nM; at Coagulation factor X, 3.4 nM.
